Measurements reported in patent publication US12168008B2, “Oxabicycloheptanes for modulation of immune response” (LIXTE BIOTECHNOLOGY, INC., priority 2016, dated 2024).

Legend:
CT26 tumor = experiment: CT26 syngeneic tumor model: tumor growth and survival; assay type: in vivo, mouse
Protocol: To test the hypothesis that inhibition of PP2A with LB-100 can enhance immune-mediated antitumor responses, rice were implanted with CT26 tumor cells. CT26 is a murine colon adenocarcinoma expressing low level of PD-L1 and is resistant to anti-PD1 therapy. After about 13 days, mice with tumor size between 30-100 mm^3 were randomized into four treatment groups (PBS control, LB-100 only—0.16 mg/kg, anti-PD-1 only—10 mg/kg, or a combination of both). Treatment was given every 2 days for a total of 28 days. Tumor size was assessed every two days (FIGS. 20A-C). Single agent treatment with anti-PD1 was ineffective in reducing tumor burden or increasing survival. LB-100 alone was able to increase median survival from 21 to 33 days (p=0.02). […]
Tumor Inoculation and Animal Studies—CT26 tumor cells (0.5×10^6) were injected subcutaneously in the right side of the abdomen. […] Tumor size were monitored with a digital caliper every 2-3 d and expressed as volume (length×width^2×0.5). […]
LB-100 and aPD-1 combination treatment synergistically elicit rejection of CT26 tumors: To test the hypothesis that PP2A inhibition synergizes with aPD-1 therapy in vivo in aPD-1 refractory tumors, a CT26 tumor was used, which is a murine colorectal carcinoma with high PD-L1 expression but limited response to aPD-1 therapy. […] Tumor growth was assessed every 2 days (FIG. 24A). […]

CD8+ or CD4+ T cells = experiment: Human allogeneic mixed lymphocyte reaction, T cells with monocyte-derived dendritic cells (Example 8); assay type: cell-based
Protocol: The effect of LB-100 on T-cells was assessed in human allogeneic mixed lymphocyte reactions, in which CD8+ or CD4+ T cells were co-cultured with […] monocyte-derived dendritic cells. […] The effect of LB-100 plus anti-PD-1 antibody was investigated on CD4+ T cells in the same assay.

CD4/8 effector cells = experiment: T cell subsets in naive mice (FIG. 13-14); assay type: in vivo, mouse
Protocol: FIG. 13A. […] Low dose of LB treatment in vivo induced more CD8 (left) and CD4 (right) effector T cells in lymph node. 5 mice per group. Control—PBS, Low dose—0.16 mg/kg, Medium dose—0.32 mg/kg.

Q: Which results are given for CN1CCN(C(=O)C2C(C(=O)O)[C@H]3CC[C@@H]2O3)CC1 (stereo partly shown) [LB-100]?
A: median survival (CT26 tumor; control 21 days, treatment every 2 days): 33 days; tumor growth, single agent (CT26 tumor; mouse, in vivo): did not significantly decrease tumor growth; IFNγ secretion in CD4+ T cells (CD8+ or CD4+ T cells): increase; T cell proliferation in CD8+ and CD4+ cells (CD8+ or CD4+ T cells): dose dependent increase; Tbet in CD4+ T cells (CD8+ or CD4+ T cells): dose dependent increase; co-stimulatory molecule OX40 expression on T cells (CD8+ or CD4+ T cells): dose dependent increase; PD-1 expression on human CD4 T cells (CD8+ or CD4+ T cells; co-cultured with monocytes derived DC): reduced PD-1 expression; PD-1 expressing CD8+ T cells in blood (CD4/8 effector cells; low dose): reduced PD-1 expressing CD8+ T cells in blood; CD4/8 effector cells in lymph node of naïve mice (CD4/8 effector cells; low dose 0.16 mg/kg): increased CD4/8 effector cells; PD-1 expressing CD8+ T cells in spleen (CD4/8 effector cells; medium dose): reduced PD-1 expressing CD8+ T cells in spleen
